Reference: patent US6627646B2 (Sepracor Inc., priority 2001, dated 2003)

Assays:
[1] = factor between polymorphs; cited from earlier work
[2] = XRPD (Rietveld) polymorph determination of samples made by literature processes; format: physicochemical; conditions: samples generated following referenced literature procedures; validated XRPD method
Source text: A Rietveld analysis was developed that allowed quantitative determination of Form B in Form A down to a detection limit at 5%. Upon analysis, it became apparent that the desired polymorph, in any reasonable degree of purity, could not be produced by the known procedures, and indeed, even a specific ratio of polymorphs was not consistently produced by the known procedures. As discussed above, such a situation is highly undesirable from both a medical and a regulatory standpoint.
All prior processes for producing norastemizole free base, described in art known to the applicants, were examined. The samples were generated following the referenced procedures and were tested using the validated XRPD method.

Row | Structure (SMILES) | difference in bio-activity between form A and form B [1] | Polymorph Results, % Form B [2]
1 | CCCCCCCCCCCCCCCC(=O)OC[C@@H](NC(=O)C(Cl)Cl)[C@H](O)c1ccc([N+](=O)[O-])cc1 [Chloramphenicol-3-palmitate] | eight | 
2 | Fc1ccc(Cn2c(NC3CCNCC3)nc3ccccc32)cc1 [H1632-4A] |  | 91%
3 | Fc1ccc(Cn2c(NC3CCNCC3)nc3ccccc32)cc1 [H1632-5A] |  | 90%
4 | Fc1ccc(Cn2c(NC3CCNCC3)nc3ccccc32)cc1 [H1632-6A] |  | 100%
5 | Fc1ccc(Cn2c(NC3CCNCC3)nc3ccccc32)cc1 [H1632-30A] |  | 100%
6 | Fc1ccc(Cn2c(NC3CCNCC3)nc3ccccc32)cc1 [R1632-7A] |  | 86%
